Data from PubChem BioAssay (NCI).
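In this assay, cells in 96-well plates receive the compound at five concentrations for 48 hours. Endpoints are linearly interpolated between the surrounding concentrations. GI50: concentration for 50% inhibition of growth. TGI denotes the concentration required for complete inhibition of growth.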

Legend:
Assay in all cases: growth of human tumour cells (NCI), 48 h
786-0 renal = system: 786-0 renal
A498 renal = system: A498 renal
A549 NSCLC = system: A549 NSCLC
ACHN renal = system: ACHN renal
BT-549 breast = system: BT-549 breast
CAKI-1 renal = system: CAKI-1 renal
CCRF-CEM leukemia = system: CCRF-CEM leukemia
COLO 205 colon = system: COLO 205 colon
DU-145 prostate = system: DU-145 prostate
EKVX NSCLC = system: EKVX NSCLC
HCC-2998 colon = system: HCC-2998 colon
HCT-116 colon = system: HCT-116 colon
HCT-15 colon = system: HCT-15 colon
HOP-62 NSCLC = system: HOP-62 NSCLC
HOP-92 NSCLC = system: HOP-92 NSCLC
HT29 colon = system: HT29 colon
IGROV1 ovarian = system: IGROV1 ovarian
K-562 leukemia = system: K-562 leukemia
KM12 colon = system: KM12 colon
LOX IMVI melanoma = system: LOX IMVI melanoma
MALME-3M melanoma = system: MALME-3M melanoma
MCF7 breast = system: MCF7 breast
MDA-MB-231 breast = system: MDA-MB-231 breast
MOLT-4 leukemia = system: MOLT-4 leukemia
NCI-H226 lung = system: NCI-H226 lung
NCI-H23 lung = system: NCI-H23 lung
NCI-H460 lung = system: NCI-H460 lung
NCI-H522 lung = system: NCI-H522 lung
OVCAR-3 ovarian = system: OVCAR-3 ovarian
OVCAR-4 ovarian = system: OVCAR-4 ovarian
OVCAR-5 ovarian = system: OVCAR-5 ovarian
OVCAR-8 ovarian = system: OVCAR-8 ovarian
PC-3 prostate = system: PC-3 prostate
RPMI-8226 leukemia = system: RPMI-8226 leukemia
SF-268 CNS = system: SF-268 CNS
SF-295 CNS = system: SF-295 CNS
SK-MEL-2 melanoma = system: SK-MEL-2 melanoma
SK-MEL-28 melanoma = system: SK-MEL-28 melanoma
SK-MEL-5 melanoma = system: SK-MEL-5 melanoma
SK-OV-3 ovarian = system: SK-OV-3 ovarian
SN12C renal = system: SN12C renal
SNB-19 CNS = system: SNB-19 CNS
SNB-75 CNS = system: SNB-75 CNS
SR leukemia = system: SR leukemia
SW-620 colon = system: SW-620 colon
T-47D breast = system: T-47D breast
TK-10 renal = system: TK-10 renal
U251 CNS = system: U251 CNS
UACC-257 melanoma = system: UACC-257 melanoma
UACC-62 melanoma = system: UACC-62 melanoma
UO-31 renal = system: UO-31 renal
HL-60(TB) leukemia = system: HL-60(TB) leukemia
HS 578T breast = system: HS 578T breast
M14 melanoma = system: M14 melanoma
MDA-MB-435 = system: MDA-MB-435
MDA-MB-468 breast = system: MDA-MB-468 breast
RXF 393 renal = system: RXF 393 renal
SF-539 CNS = system: SF-539 CNS

## CC(=O)Nc1cccc(Nc2nccc(N[C@@H](C)c3ccccc3)n2)c1
786-0 renal
  GI50: 0.602 µM
  TGI: > 10 µM
A498 renal
  TGI: > 10 µM
A549 NSCLC
  GI50: 0.418 µM
  TGI: > 10 µM
ACHN renal
  GI50: 0.509 µM
  TGI: > 10 µM
BT-549 breast
  GI50: 0.442 µM
  TGI: > 10 µM
CAKI-1 renal
  GI50: 0.108 µM
  TGI: > 10 µM
CCRF-CEM leukemia
  GI50: 0.233 µM
  TGI: > 10 µM
COLO 205 colon
  GI50: 0.262 µM
  TGI: 1.08 µM
DU-145 prostate
  GI50: 0.383 µM
  TGI: > 10 µM
EKVX NSCLC
  GI50: 0.363 µM
  TGI: > 10 µM
HCC-2998 colon
  GI50: 0.423 µM
  TGI: > 10 µM
HCT-116 colon
  GI50: 0.276 µM
  TGI: > 10 µM
HCT-15 colon
  GI50: 0.121 µM
  TGI: > 10 µM
HOP-62 NSCLC
  GI50: 0.345 µM
  TGI: > 10 µM
HOP-92 NSCLC
  GI50: 0.793 µM
  TGI: > 10 µM
HT29 colon
  GI50: 0.194 µM
  TGI: > 10 µM
IGROV1 ovarian
  GI50: 0.37 µM
  TGI: > 10 µM
K-562 leukemia
  GI50: 0.0498 µM
  TGI: > 10 µM
KM12 colon
  GI50: 0.104 µM
  TGI: > 10 µM
LOX IMVI melanoma
  GI50: 0.39 µM
  TGI: > 10 µM
MALME-3M melanoma
  GI50: 0.102 µM
  TGI: > 10 µM
MCF7 breast
  GI50: 0.171 µM
  TGI: > 10 µM
MDA-MB-231 breast
  GI50: 0.416 µM
  TGI: > 10 µM
MOLT-4 leukemia
  GI50: 0.327 µM
  TGI: > 10 µM
NCI-H226 lung
  GI50: 1 µM
  TGI: > 10 µM
NCI-H23 lung
  GI50: 0.239 µM
  TGI: > 10 µM
NCI-H460 lung
  GI50: 0.246 µM
  TGI: > 10 µM
NCI-H522 lung
  GI50: 0.129 µM
  TGI: 1.24 µM
OVCAR-3 ovarian
  GI50: 0.118 µM
  TGI: > 10 µM
OVCAR-4 ovarian
  GI50: 1.02 µM
  TGI: > 10 µM
OVCAR-5 ovarian
  GI50: 0.409 µM
  TGI: > 10 µM
OVCAR-8 ovarian
  GI50: 0.363 µM
  TGI: > 10 µM
PC-3 prostate
  GI50: 0.319 µM
  TGI: > 10 µM
RPMI-8226 leukemia
  GI50: 0.293 µM
  TGI: > 10 µM
SF-268 CNS
  GI50: 0.99 µM
  TGI: > 10 µM
SF-295 CNS
  GI50: 0.11 µM
  TGI: 0.522 µM
SK-MEL-2 melanoma
  GI50: 0.18 µM
  TGI: > 10 µM
SK-MEL-28 melanoma
  GI50: 0.703 µM
  TGI: > 10 µM
SK-MEL-5 melanoma
  GI50: 0.125 µM
  TGI: 0.481 µM
SK-OV-3 ovarian
  GI50: 0.675 µM
  TGI: > 10 µM
SN12C renal
  GI50: 0.559 µM
  TGI: > 10 µM
SNB-19 CNS
  GI50: 0.335 µM
  TGI: > 10 µM
SNB-75 CNS
  GI50: 0.119 µM
  TGI: > 10 µM
SR leukemia
  GI50: 0.0453 µM
  TGI: > 10 µM
SW-620 colon
  GI50: 0.194 µM
  TGI: > 10 µM
T-47D breast
  GI50: 0.331 µM
  TGI: > 10 µM
TK-10 renal
  GI50: 0.76 µM
  TGI: > 10 µM
U251 CNS
  GI50: 0.289 µM
  TGI: > 10 µM
UACC-257 melanoma
  GI50: 0.908 µM
  TGI: > 10 µM
UACC-62 melanoma
  GI50: 0.126 µM
  TGI: > 10 µM
UO-31 renal
  GI50: 0.372 µM
  TGI: > 10 µM

## Cc1ccc(-c2cc(-c3cc4ccccc4nc3Cl)[nH]c(=O)n2)cc1
786-0 renal
  GI50: 4.71 µM
  TGI: 17.5 µM
A498 renal
  GI50: 14.4 µM
  TGI: 30.5 µM
A549 NSCLC
  GI50: 22.1 µM
  TGI: > 100 µM
ACHN renal
  GI50: 16.3 µM
  TGI: 32.9 µM
BT-549 breast
  GI50: 2.73 µM
  TGI: 7.87 µM
CAKI-1 renal
  GI50: 11.9 µM
  TGI: 26.5 µM
CCRF-CEM leukemia
  GI50: 3.94 µM
  TGI: 35.5 µM
COLO 205 colon
  GI50: 18 µM
  TGI: 38.8 µM
DU-145 prostate
  GI50: 13.1 µM
  TGI: 26.9 µM
EKVX NSCLC
  GI50: 17.6 µM
  TGI: 54.8 µM
HCC-2998 colon
  GI50: 15.3 µM
  TGI: 29.4 µM
HCT-116 colon
  GI50: 3.31 µM
  TGI: 14 µM
HCT-15 colon
  GI50: 13 µM
  TGI: 45.1 µM
HL-60(TB) leukemia
  GI50: 1.89 µM
  TGI: 14.6 µM
HOP-62 NSCLC
  GI50: 14.2 µM
  TGI: 31.5 µM
HOP-92 NSCLC
  GI50: 2.73 µM
  TGI: 14.5 µM
HS 578T breast
  GI50: 13 µM
  TGI: 83.4 µM
HT29 colon
  GI50: 16 µM
  TGI: 34.6 µM
IGROV1 ovarian
  GI50: 16 µM
  TGI: 37.2 µM
K-562 leukemia
  GI50: 2.61 µM
  TGI: 13.2 µM
KM12 colon
  GI50: 7.63 µM
  TGI: 24.8 µM
LOX IMVI melanoma
  GI50: 8.43 µM
  TGI: 23.9 µM
M14 melanoma
  GI50: 10.7 µM
  TGI: 30.1 µM
MALME-3M melanoma
  GI50: 14.8 µM
  TGI: 29.1 µM
MCF7 breast
  GI50: 6.08 µM
  TGI: 22.4 µM
MDA-MB-231 breast
  GI50: 13.9 µM
  TGI: 32.4 µM
MDA-MB-435
  GI50: 14.9 µM
  TGI: 31.5 µM
MDA-MB-468 breast
  GI50: 12.7 µM
  TGI: 44.3 µM
MOLT-4 leukemia
  GI50: 2.66 µM
  TGI: 12.4 µM
NCI-H226 lung
  GI50: 13.1 µM
  TGI: 37.2 µM
NCI-H23 lung
  GI50: 12.2 µM
  TGI: 30.2 µM
NCI-H460 lung
  GI50: 10 µM
  TGI: 29.3 µM
NCI-H522 lung
  GI50: 13.9 µM
  TGI: 27.3 µM
OVCAR-3 ovarian
  GI50: 10.3 µM
  TGI: 22.5 µM
OVCAR-4 ovarian
  GI50: 20.9 µM
  TGI: > 100 µM
OVCAR-5 ovarian
  GI50: 16.9 µM
  TGI: 32.5 µM
OVCAR-8 ovarian
  GI50: 18.5 µM
  TGI: 76.8 µM
PC-3 prostate
  GI50: 12 µM
  TGI: 37 µM
RPMI-8226 leukemia
  GI50: 3.17 µM
  TGI: 17.8 µM
RXF 393 renal
  GI50: 14.6 µM
  TGI: 32.6 µM
SF-268 CNS
  GI50: 13.8 µM
  TGI: 32.3 µM
SF-295 CNS
  GI50: 16.9 µM
  TGI: 35.1 µM
SF-539 CNS
  GI50: 12.1 µM
  TGI: 24.7 µM
SK-MEL-2 melanoma
  GI50: 14.4 µM
  TGI: 30.6 µM
SK-MEL-28 melanoma
  GI50: 16.2 µM
  TGI: 30.2 µM
SK-MEL-5 melanoma
  GI50: 17.7 µM
  TGI: 33.7 µM
SK-OV-3 ovarian
  GI50: 29.2 µM
  TGI: > 100 µM
SN12C renal
  GI50: 15.8 µM
  TGI: 33 µM
SNB-19 CNS
  GI50: 11.3 µM
  TGI: 23.9 µM
SNB-75 CNS
  GI50: 11.4 µM
  TGI: 40.2 µM
SR leukemia
  GI50: 1.2 µM
  TGI: 4.33 µM
SW-620 colon
  GI50: 13.8 µM
  TGI: 34.4 µM
T-47D breast
  GI50: 16.4 µM
  TGI: 77.3 µM
TK-10 renal
  GI50: 15.1 µM
  TGI: 29.7 µM
U251 CNS
  GI50: 9.95 µM
  TGI: 28.6 µM
UACC-257 melanoma
  GI50: 16.7 µM
  TGI: 35.7 µM
UACC-62 melanoma
  GI50: 14 µM
  TGI: 30 µM
UO-31 renal
  GI50: 10.4 µM
  TGI: 22.2 µM
